Experiments:
XYLT2 mRNA expression = XYLT2 mRNA expression in NHDFs by qRT-PCR; assay type: cell-based, human; settings: 48 h
Procedure: (§1) A former established cell culture model was utilized to investigate the effect of putative XT-I inhibitors on NHDFs. The inhibition studies were carried out with final inhibitor concentrations of 0.5, 1.0, 2.0 or 4.0 μM diluted in fully supplemented DMEM. In brief, unless otherwise stated, NHDFs were cultivated with a low density of 50 cells per mm^2 on a hard tissue culture substrate (100 × 20 mm dish) in fully supplemented DMEM with or without additional TGF-β1 (5 μg/L) for 24 h, promoting their transdifferentiation into proto-myofibroblasts. Thereafter, cells were treated with celastrol or amphotericin B in the presence or absence of TGF-β1 (5 μg/L) for an additional 48 h. Negative controls treated with solvent only were included for every sampling time. The final DMSO content of 0.04% (v/v) was kept constant in all inhibition experiments.
(§2) The RNA extraction from cell lysates and cDNA synthesis for mRNA and miRNA expression analysis were performed as described previously.
(§3) Quantitative real-time polymerase chain reaction (qRT-PCR) analysis using a LightCycler 480 Instrument II system (Roche, Basel, Swiss) was performed as previously described. The qRT-PCR experiments were conducted with three biological and three technical replicates per donor-derived primary cell culture, unless otherwise stated. The intron-spanning primer sequences used are listed in [7] and Table 1. The geometric mean of the expression levels of the housekeeping genes SDHA, RPL13A and B2M were calculated for expression normalization. The relative target gene mRNA expressions were determined by the ΔΔCT method considering the PCR efficiency. All normalized gene expression levels shown were referred to the respective target gene expression of one primary cell culture sample for the relative comparison of multiple biological samples per experiment and figures.

XT-I = biological target: T1, XT-I (Homo sapiens, UniProt Q86Y38); assay: Enzyme and inhibition kinetics (mode of inhibition), UPLC/ESI-MS/MS XT-I assay; assay type: biochemical; settings: inhibitor at IC50 concentration; for Vmax: Figure 2, modified acceptor peptide varied, 15 μM UDP-D-xylose, Michaelis-Menten; for Vmax [AU]: Table S2, Michaelis-Menten plot, nonlinear regression
T1 sequence (Q86Y38 260-959 limits assumed): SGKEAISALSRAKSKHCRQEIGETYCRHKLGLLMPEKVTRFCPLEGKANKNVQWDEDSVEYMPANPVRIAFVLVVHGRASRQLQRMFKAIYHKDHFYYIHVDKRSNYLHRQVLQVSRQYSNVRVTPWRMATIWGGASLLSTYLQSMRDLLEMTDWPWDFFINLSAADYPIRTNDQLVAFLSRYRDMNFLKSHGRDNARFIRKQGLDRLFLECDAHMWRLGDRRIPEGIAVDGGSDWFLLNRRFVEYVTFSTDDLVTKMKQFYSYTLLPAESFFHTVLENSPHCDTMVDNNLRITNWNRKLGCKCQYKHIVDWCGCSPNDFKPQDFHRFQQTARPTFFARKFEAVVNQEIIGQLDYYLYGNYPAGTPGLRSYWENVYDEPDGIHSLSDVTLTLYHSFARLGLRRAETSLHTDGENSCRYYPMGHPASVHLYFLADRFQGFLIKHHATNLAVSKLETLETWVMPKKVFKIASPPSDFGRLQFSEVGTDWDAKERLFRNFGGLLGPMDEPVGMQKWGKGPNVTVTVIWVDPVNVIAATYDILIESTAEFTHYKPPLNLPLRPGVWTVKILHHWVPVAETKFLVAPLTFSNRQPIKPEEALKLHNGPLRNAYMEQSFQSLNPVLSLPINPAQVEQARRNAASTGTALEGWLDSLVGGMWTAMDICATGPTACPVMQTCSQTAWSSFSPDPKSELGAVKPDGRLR
Description: The measurement of relative XT-I activity among different samples is based on the XT-catalyzed incorporation of xylose from UDP-D-xylose on a modified bikunin-derived peptide after a fixed reaction time. The assay was originally developed for the determination of XT activity in human- or cell-culture-derived samples [13] by ultra-performance liquid chromatography/electrospray ionization tandem mass spectrometry (UPLC/ESI-MS/MS). The UPLC/ESI-MS/MS XT assay was recently modified toward a XT-I selective activity determination in human serum and cell culture samples (unpublished data). The relative intensities of the xylosylated peptide species abundance obtained with the respective m/z ratio were directly proportional to the relative XT-I activity of the sample. The XT-I activity determined is expressed in arbitrary units and normalized to the total protein content per 1 mL sample volume in cell culture approaches. A calibrator probe with a fixed amount of recombinant XT-I enzyme was included in every UPLC-MS/MS XT-I assay for assay comparability across multiple runs. The assay reaction mixture (50 μL) contained 50% (v/v) of the respective XT-I enzyme solution and 50% (v/v) reaction buffer. The final XT-I assay contained 25 mM MES buffer (pH 6.5), 25 mM KF buffer, 5 mM MnCl2, 5 mM MgCl2, 7.0 μM modified acceptor peptide and 30 μM UDP-D-xylose. The sample preparation for UPLC/ESI-MS/MS was performed according to [13]. In brief, after sample incubation at 37 °C for 24 h, the reaction was stopped by heating at 99 °C for 10 min. After centrifugation (10,000× g, 10 min) the supernatant was diluted fivefold with UPLC water for analysis. All cell-based XT-I assays were carried out in three biological and three technical replicates per donor-derived primary cell culture, while the XT-I activity determination for screening or kinetic purposes was carried out at least in technical duplicates.
The mode of inhibition (MOI) study was performed by evaluating the inhibitors’ impact on the enzyme parameters’ Michaelis constant Km and the maximum activity Vmax. In order to determine the enzyme and inhibition kinetics, XT-I activity determination of the recombinant XT-I protein solution with and without inhibitor supplementation was carried out in the presence of different acceptor peptide concentrations ranging from 1 to 30 μM. […] The Km and Vmax were determined with the Michaelis–Menten equation and nonlinear regression analysis, while the slope and Y-intersection values were determined by a Lineweaver–Burk plot and simple linear regression using GraphPad Prism 8.0 (GraphPad Software, La Jolla, United States) software.

XYLT1 mRNA expression = XYLT1 mRNA expression in NHDFs by qRT-PCR; assay type: cell-based, human; settings: 48 h; for TGF-β1-mediated XYLT1 mRNA expression relative to TGF-β1 only: with TGF-β1 (5 μg/L)
Procedure: as §1, with “experiments. […]” for “experiments.”
as §2, §3

| SMILES | XYLT2 mRNA expression level (XYLT2 mRNA expression; 2.0 μM with TGF-β1 (5 μg/L), versus TGF-β1 only) | Vmax (XT-I) | Vmax [AU] (XT-I) | mode of inhibition (MOI) regarding the acceptor peptide (XT-I) | TGF-β1-mediated XYLT1 mRNA expression relative to TGF-β1 only (XYLT1 mRNA expression; 0.5 μM) | basal XYLT1 mRNA expression relative to control (XYLT1 mRNA expression; 0.5 μM, without TGF-β1) | TGF-β1-mediated XYLT1 mRNA expression relative to TGF-β1 only (XYLT1 mRNA expression; 1.0 μM) | basal XYLT1 mRNA expression relative to control (XYLT1 mRNA expression; 1.0 μM, without TGF-β1) | TGF-β1-mediated XYLT1 mRNA expression relative to TGF-β1 only (XYLT1 mRNA expression; 2.0 μM) | basal XYLT1 mRNA expression relative to DMSO control (XYLT1 mRNA expression; 2.0 μM, without TGF-β1) | XYLT2 mRNA expression level (XYLT2 mRNA expression; 1.0 μM in the presence of TGF-β1 (5 μg/L)) |
| --- | --- | --- | --- | --- | --- | --- | --- | --- | --- | --- | --- |
| C[C@@H]1[C@H](O)[C@@H](C)/C=C/C=C/C=C/C=C/C=C/C=C/C=C/[C@H](O[C@@H]2O[C@H](C)[C@@H](O)[C@H](N)[C@@H]2O)C[C@@H]2O[C@](O)(C[C@@H](O)C[C@@H](O)[C@H](O)CC[C@@H](O)C[C@@H](O)CC(=O)O[C@H]1C)C[C@H](O)[C@H]2C(=O)O [Compound 17, Amphotericin B] | did not differ | 10 ± 0.4 ·10^3 AU | 10031 ± 388 AU | uncompetitive | 0.9 ± 0.07 fold | 0.6 ± 0.06 fold | 0.8 ± 0.06 fold | 0.6 ± 0.05 fold | 0.7 ± 0.03 fold | 0.6 ± 0.09 fold | – |
| CC1=C(O)C(=O)C=C2C1=CC=C1[C@@]2(C)CC[C@@]2(C)[C@@H]3C[C@](C)(C(=O)O)CC[C@]3(C)CC[C@]12C [Compound 68, Celastrol] | – | 12 ± 0.6 ·10^3 AU | 11826 ± 551 AU | competitive | nor effected | neither changed | 0.8 ± 0.07 fold | 0.8 ± 0.06 fold | – | – | did not alter |
